Legend:
Format in all cases: in vivo
Details in all cases: 1000 g/ha, evaluated after 13 days
[1] = test system: Alopecurus myosuroides (ALOMY); assay: Post-emergence herbicidal activity, Alopecurus myosuroides; design: key: 5=total damage to plant; 0=no damage to plant
Procedure: (§1) Seeds of a variety of test species were sown in standard soil in pots: Triticum aestivium (TRZAW), Avena fatua (AVEFA), Alopecurus myosuroides (ALOMY), Echinochloa crus-galli (ECHCG), Lolium perenne (LOLPE), Zea Mays (ZEAMX), Abutilon theophrasti (ABUTH), Amaranthus retroflexus (AMARE) and Setaria faberi (SETFA). After 8 days cultivation (post-emergence) under controlled conditions in a glasshouse (at 24/16° C., day/night; 14 hours light; 65% humidity), the plants were sprayed with an aqueous spray solution derived from the formulation of the technical active ingredient in acetone/water (50:50) solution containing 0.5% Tween 20 (polyoxyethelyene sorbitan monolaurate, CAS RN 9005-64-5). The test plants were then grown in a glasshouse under controlled conditions (at 24/16° C., day/night; 14 hours light; 65% humidity) and watered twice daily. After 13 days, the test was evaluated (5=total damage to plant; 0=no damage to plant).

[2] = test system: Echinochloa crus-galli (ECHCG); assay: Post-emergence herbicidal activity, Echinochloa crus-galli; design: key: 5=total damage to plant; 0=no damage to plant
Procedure: as §1

Lolium perenne (LOLPE) [3] = assay: Post-emergence herbicidal activity, Lolium perenne
Procedure: as §1

Avena fatua (AVEFA) [4] = assay: Post-emergence herbicidal activity, Avena fatua
Procedure: as §1

Lolium perenne (LOLPE) [5] = assay: Pre-emergence herbicidal activity, Lolium perenne; design: key: 5=total damage to plant; 0=no damage to plant
Procedure: (§2) Seeds of a variety of test species were sown in standard soil in pots: Triticum aestivium (TRZAW), Avena fatua (AVEFA), Alopecurus myosuroides (ALOMY), Echinochloa crus-galli (ECHCG), Lolium perenne (LOLPE), Zea Mays (ZEAMX), Abutilon theophrasti (ABUTH), Amaranthus retroflexus (AMARE) and Setaria faberi (SETFA). After cultivation for one day (pre-emergence) under controlled conditions in a glasshouse (at 24/16° C., day/night; 14 hours light; 65% humidity), the plants were sprayed with an aqueous spray solution derived from the formulation of the technical active ingredient in acetone/water (50:50) solution containing 0.5% Tween 20 (polyoxyethelyene sorbitan monolaurate, CAS RN 9005-64-5). The test plants were then grown in a glasshouse under controlled conditions (at 24/16°, day/night; 14 hours light; 65% humidity) and watered twice daily. After 13 days, the test was evaluated (5=total damage to plant; 0=no damage to plant).

Setaria faberi (SETFA) [6] = assay: Post-emergence herbicidal activity, Setaria faberi; design: key: 5=total damage to plant; 0=no damage to plant
Procedure: as §1

[7] = test system: Echinochloa crus-galli (ECHCG); assay: Pre-emergence herbicidal activity, Echinochloa crus-galli
Procedure: as §2

[8] = test system: Alopecurus myosuroides (ALOMY); assay: Pre-emergence herbicidal activity, Alopecurus myosuroides; design: key: 5=total damage to plant; 0=no damage to plant
Procedure: as §2

[9] = test system: Triticum aestivium (TRZAW); assay: Post-emergence herbicidal activity, Triticum aestivium; design: key: 5=total damage to plant; 0=no damage to plant
Procedure: as §1

Avena fatua (AVEFA) [10] = assay: Pre-emergence herbicidal activity, Avena fatua; design: key: 5=total damage to plant; 0=no damage to plant
Procedure: as §2

[11] = test system: Triticum aestivium (TRZAW); assay: Pre-emergence herbicidal activity, Triticum aestivium; design: key: 5=total damage to plant; 0=no damage to plant
Procedure: as §2

Setaria faberi (SETFA) [12] = assay: Pre-emergence herbicidal activity, Setaria faberi; design: key: 5=total damage to plant; 0=no damage to plant
Procedure: as §2

Row | SMILES | Control of ALOMY after post-emergence application (score 0-5) [1] | Control of ECHCG after post-emergence application (score 0-5) [2] | Control of LOLPE after post-emergence application (score 0-5) (Lolium perenne (LOLPE) [3]) | Control of AVEFA after post-emergence application (score 0-5) (Avena fatua (AVEFA) [4]) | Control of LOLPE after pre-emergence application (score 0-5) (Lolium perenne (LOLPE) [5]) | Control of SETFA after post-emergence application (score 0-5) (Setaria faberi (SETFA) [6]) | Control of ECHCG after pre-emergence application (score 0-5) [7] | Control of ALOMY after pre-emergence application (score 0-5) [8] | Control of TRAZW after post-emergence application (score 0-5) [9] | Control of AVEFA after pre-emergence application (score 0-5) (Avena fatua (AVEFA) [10]) | Control of TRAZW after pre-emergence application (score 0-5) [11] | Control of SETFA after pre-emergence application (score 0-5) (Setaria faberi (SETFA) [12])
1 | O=C1OCCN1c1ccc(-c2cncc(F)c2)nc1C(F)(F)F [Compound B45, 3-[6-(5-fluoro-3-pyridyl)-2-(trifluoromethyl)-3-pyridyl]oxazolidin-2-one] | 1 | 4 | 2 | 3 | 0 | 4 | 3 | 0 | 1 | 0 | 0 | 3
2 | O=C(Nc1ccc(-c2cncc(F)c2)nc1C(F)(F)F)OC1CCCCC1 [Compound B108] | 0 | 0 | 1 | 3 | 2 | 5 | 3 | 0 | 0 | 2 | 0 | 5
3 | C=CCOC(=O)Nc1ccc(-c2cncc(F)c2)nc1C(F)(F)F [Compound B119] | 0 | 3 | 3 | 4 | 0 | 5 | 3 | 0 | 0 | 2 | 0 | 5
4 | CSc1cncc(-c2ccc(NC(=O)OC(C)(C)C)c(C)n2)c1 [Compound B12] | 1 | 2 | 2 | 2 | 1 | 3 | 1 | 1 | 1 | 1 | 0 | 3
5 | O=C(Nc1ccc(-c2cncc(F)c2)nc1C(F)(F)F)N1CCSCC1 [Compound B54] | 1 | 4 | 3 | 4 | 1 | 4 | 3 | 0 | 1 | 2 | 0 | 3

— patent US20210127673A1, “HERBICIDES” (SYNGENTA PARTICIPATIONS AG, priority 2016, published 2021)
